Data reported in patent publication US7064120B2, “Tricyclic pyridyl carboxamides and derivatives thereof tocolytic oxytocin receptor antagonists” (Wyeth, priority 2001, dated 2006).

Target: T1, human vasopressin V1a receptor subtype (Homo sapiens, UniProt P37288)
T1 construct: host or cells: CHO cells, stably transfected (pZeoSV vector for the Thibonnier line)
Experiment: Vasopressin binding in CHO cell membranes expressing human vasopressin V1a subtype receptors ([3H]Manning ligand radioligand binding)
Conditions: 100 nM
Protocol: Vasopressin Binding in Chinese Hamster Ovary Cell Membranes Expressing Human Vasopressin V1a Subtype Receptors
The trypsin is removed by aspiration and the cells dislodged by tapping. Cell Culture medium (e.g. 30 mL for 1:30 split) is immediately added and mixed well to inactivate trypsin. 1 mL of detached cells is added to new culture flasks containing fresh cell culture medium (e.g., into 25 mL per T-150 flask), and mixed gently. The cells are incubated at 37° C. in 5% CO2. The medium is changed at 3 to 4 days interval (or as appropriate). […] All steps are done under sterile conditions.
The cells are washed twice gently with Hank's Balanced Salt solution (e.g,. use 10 mL per T-150 flask). […] The contents are transferred to centrifuge tubes (50 mL) kept in an ice bath. All subsequent steps are done at 4° C. The tubes are centrifuged at 300×g for 15 min (1380 rpm on SORVAL, Model RT6000D, using the rotor for 50 mL tubes). The supernatant is discarded and the cells suspended in homogenizing buffer(10 mM Tris-HCl containing 0.25 M sucrose and 1 mM EDTA, pH 7.4) ensuring that the volume of the buffer is about ten times the volume of the cell pellet. The cells are pooled into a centrifuge tube (50 mL) and homogenized with Polytron at setting 6 for 10 sec. The homogenate is transferred into a Potter-Elvjehm homogenizer and homogenized with 3 strokes. The homogenate is centrifuged at 1500×g for 10 min at 4° C. (3100 rpm using SORVAL, model RT6000D, using the rotor for 50 mL tubes). The pellet is discarded. The supernatant is centrifuged at 100,000×g for 60 min. at 4° C. (Beckman L8-80M ultracentrifuge; spin at 37,500 rpm with rotor type 70 Ti for 50 mL tubes; 38,000 rpm with type 80Ti for 15 mL tubes; or 35,800 rpm with rotor type 45Ti). The supernantant is discarded and the pellet suspended in 3 to 4 mL of Tris buffer (50 mM TRIS-HCl, pH 7.4). The protein content is estimated by the Bradford or Lowry method. The volume of the membrane suspension is adjusted with the membrane buffer (50 mM Tris-HCl containing 0.1% BSA and 0.1 mM PMSF) to give 3.0 mg/mL (or as appropriate) of protein. The membranes are aliquoted and stored at −70° C.
In wells of a 96-well format microtiter plate, is added 90, 110 or 130 μL (to make up a final volume of 200 μL) of assay buffer containing 50 mM of Tris-HCl (pH 7.4), BSA (heat inactivated, protease-free), […], 1 mg % aprotinin, 1 mg % leupeptin, 2 mg % 1,10-phenanthroline, 10 mg % trypsin inhibitor, and 0.1 mM PMSF. The inhibitors are added on the day of the experiment. The components are mixed at room temperature, and then kept in ice bath following adjustment of the pH to 7.4. […] 20 μL of 50% DMSO is added for Manning and other peptide ligands and the assay buffer volume is adjusted accordingly. To each well is added 50 μL of frozen membrane suspension thawed immediately prior to use and diluted in the assay buffer to the required concentration (equivalent to 25 to 50 μg of protein/well as needed). 20 μL of 8 nM [^3H]Manning ligand in the assay buffer, prepared just before use, is added, and incubated at room temperature for 60 min. shaking the plate on a mechanical shaker for the first 15 min. The incubation is stopped by rapid filtration of the plate contents followed by wash with ice-cold buffer (50 mM Tris-HCl, pH 7.4) using a cell harvester (Tomtek and Printed filtermat-B filter paper). The filter paper is thoroughly dried (7–12 min. in a microwave oven) and impregnated with MeltiLex B/H melt-on scintillation wax sheets and the radioactivity counted in a betaplate scintillation counter.
Binding data is either reported as percent inhibition at a certain concentration or if an IC50 was calculated, as a nanomolar concentration.

T1 sequence (P37288 whole entry): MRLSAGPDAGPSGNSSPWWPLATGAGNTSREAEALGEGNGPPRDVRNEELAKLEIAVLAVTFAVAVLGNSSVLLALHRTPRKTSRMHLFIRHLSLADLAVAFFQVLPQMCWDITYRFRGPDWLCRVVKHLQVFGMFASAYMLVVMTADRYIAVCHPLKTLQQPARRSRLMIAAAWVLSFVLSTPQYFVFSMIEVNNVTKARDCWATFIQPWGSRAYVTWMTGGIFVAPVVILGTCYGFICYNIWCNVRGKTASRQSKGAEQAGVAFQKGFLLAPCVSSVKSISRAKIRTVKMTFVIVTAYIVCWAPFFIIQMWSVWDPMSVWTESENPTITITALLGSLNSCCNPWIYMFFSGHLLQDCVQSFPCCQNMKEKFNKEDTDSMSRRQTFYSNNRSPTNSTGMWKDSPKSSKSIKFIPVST

| inhibition at 0.1 µM | Structure (SMILES) | V1a % inhibition @ 100 nM |
| --- | --- | --- |
| 21% | COc1cccc(-c2ccc(C(=O)N3Cc4ccc(C(=O)NCc5ccccn5)n4Cc4ccccc43)cc2C)c1 [Example 25, 10-[(3′-Methoxy-2-methyl-[1,1′-biphenyl]-4-yl)carbonyl]-N-(2-pyridinylmethyl)-10,11-dihydro-5H-pyrrolo[2,1-c][1,4]benzodiazepine-3-carboxamide] | – |
| 30% | COc1cc(C(=O)N2Cc3ccc(C(=O)NCCc4ccccn4)n3Cc3ccccc32)ccc1-c1ccccc1C [Example 54, 10-[(2-Methoxy-2′-methyl-[1,1′-biphenyl]-4-yl)carbonyl]-N-[2-(2-pyridinyl)ethyl]-10,11-dihydro-5H-pyrrolo[2,1-c][1,4]benzodiazepine-3-carboxamide] | – |
| -1% | O=C(NCc1cccnc1)c1ccc2n1Cc1ccccc1N(C(=O)c1ccc(-c3cccc4ccccc34)cc1Cl)C2 [Example 47, 10-[2-Chloro-4-(naphthalen-1-yl)benzoyl]-N-(3-pyridinylmethyl)-10,11-dihydro-5H-pyrrolo[2,1-c][1,4]benzodiazepine-3-carboxamide] | – |
| 17% | COc1cc(C(=O)N2Cc3ccc(C(=O)N4CCN(c5ccncc5)CC4)n3Cc3ccccc32)ccc1-c1cccc2ccccc12 [Example 121, {10-[3-Methoxy-4-(naphthalen-1-yl)benzoyl]-10,11-dihydro-5H-pyrrolo[2,1-c][1,4]benzodiazepin-3-yl}[4-(4-pyridinyl)-1-piperazinyl]methanone] | – |
| 4% | CN(Cc1cccnc1)C(=O)c1ccc2n1Cc1ccccc1N(C(=O)c1ccc(-c3cccc4ccccc34)cc1Cl)C2 [Example 111, 10-[2-Chloro-4-(naphthalen-1-yl)benzoyl]-N-methyl-N-(3-pyridinylmethyl)-10,11-dihydro-5H-pyrrolo[2,1-c][1,4]benzodiazepine-3-carboxamide] | – |
| 26% | Cc1ccccc1-c1ccc(C(=O)N2Cc3ccc(C(=O)NCCc4ccccn4)n3Cc3ccccc32)cc1C [Example 50, 10-[(2,2′-Dimethyl-[1,1′-biphenyl]-4-yl)carbonyl]-N-[2-(2-pyridinyl)ethyl]-10,11-dihydro-5H-pyrrolo[2,1-c][1,4]benzodiazepine-3-carboxamide] | – |
| 4% | O=C(NCCc1ccccn1)c1ccc2n1Cc1ccccc1N(C(=O)c1ccc(-c3cccc4ccccc34)cc1Cl)C2 [Example 60, 10-[2-Chloro-4-(naphthalen-1-yl)benzoyl]-N-[2-(2-pyridinyl)ethyl]-10,11-dihydro-5H-pyrrolo[2,1-c][1,4]benzodiazepine-3-carboxamide] | – |
| 4% | Cc1cc(C(=O)N2Cc3ccc(C(=O)NCc4ccccn4)n3Cc3ccccc32)ccc1-c1ccccc1C(F)(F)F [Example 35, 10-{[2-Methyl-2′-trifluoromethyl-[1,1′-biphenyl]-4-yl]carbonyl}-N-(2-pyridinylmethyl)-10,11-dihydro-5H-pyrrolo[2,1-c][1,4]benzodiazepine-3-carboxamide] | – |
| 56% | Cc1ccccc1-c1ccc(C(=O)N2Cc3ccc(C(=O)N4CCN(c5ccncc5)CC4)n3Cc3ccccc32)cc1C [Example 114, {10-[(2,2′-Dimethyl-[1,1′-biphenyl]-4-yl)carbonyl]-10,11-dihydro-5H-pyrrolo[2,1-c][1,4]benzodiazepin-3-yl}[4-(4-pyridinyl)-1-piperazinyl]methanone] | – |

The remaining lines, values behind:

| Structure (SMILES) | inhibition at 0.1 µM | V1a % inhibition @ 100 nM |
| --- | --- | --- |
| COc1ccccc1-c1ccc(C(=O)N2Cc3ccc(C(=O)NCc4cccnc4)n3Cc3ccccc32)cc1C [Example 36, 10-[(2′-Methoxy-2-methyl-[1,1′-biphenyl]-4-yl)carbonyl]-N-(3-pyridinylmethyl)-10,11-dihydro-5H-pyrrolo[2,1-c][1,4]benzodiazepine-3-carboxamide] | -3% | – |
| COc1cccc(-c2cc(OC)c(C(=O)N3Cc4ccc(C(=O)NCc5cccnc5)n4Cc4ccccc43)cc2Cl)c1 [Example 43, 10-[(6-Chloro-3,3′-dimethoxy-[1,1′-biphenyl]-4-yl)carbonyl]-N-(3-pyridinylmethyl)-10,11-dihydro-5H-pyrrolo[2,1-c][1,4]benzodiazepine-3-carboxamide] | -6% | – |
| COc1ccccc1-c1ccc(C(=O)N2Cc3ccc(C(=O)N4CCCCC4c4cccnc4)n3Cc3ccccc32)cc1OC (centres unmarked) [Example 141, {10-[(2,2′-Dimethoxy-[1,1′-biphenyl]-4-yl)carbonyl]-10,11-dihydro-5H-pyrrolo[2,1-c][1,4]benzodiazepin-3-yl}[2-(3-pyridinyl)-1-piperidinyl]methanone] | 9% | – |
| Cc1cc(C(=O)N2Cc3ccc(C(=O)NCCc4ccccn4)n3Cc3ccccc32)ccc1-c1ccccc1C(F)(F)F [Example 61, 10-{[2-Methyl-2′-trifluoromethyl=[1,1′-biphenyl]-4-yl]carbonyl}-N-[2-(2-pyridinyl)ethyl]-10,11-dihydro-5H-pyrrolo[2,1-c][1,4]benzodiazepine-3-carboxamide] | – | 6% |
| COc1cccc(-c2cc(OC)c(C(=O)N3Cc4ccc(C(=O)N(C)CCc5ccncc5)n4Cc4ccccc43)cc2Cl)c1 [Example 133, 10-[(6-Chloro-3,3′-dimethoxy-[1,1′-biphenyl]-4-yl)carbonyl]-N-methyl-N-[2-(4-pyridinyl)ethyl]-10,11-dihydro-5H-pyrrolo[2,1-c][1,4]benzodiazepine-3-carboxamide] | 19% | – |
| COc1ccccc1-c1ccc(C(=O)N2Cc3ccc(C(=O)N(C)CCc4ccncc4)n3Cc3ccccc32)cc1OC [Example 125, 10-[(2,2′-Dimethoxy-[1,1′-biphenyl]-4-yl)carbonyl]-N-methyl-N-[2-(4-pyridinyl)ethyl]-10,11-dihydro-5H-pyrrolo[2,1-c][1,4]benzodiazepine-3-carboxamide] | 17% | – |
| Cc1ccccc1-c1ccc(C(=O)N2Cc3ccc(C(=O)NCc4cccnc4)n3Cc3ccccc32)cc1C [Example 37, 10-[(2,2′-Dimethyl-[1,1′-biphenyl]-4-yl)carbonyl]-N-(3-pyridinylmethyl)-10,11-dihydro-5H-pyrrolo[2,1-c][1,4]benzodiazepine-3-carboxamide] | 12% | – |
| COc1cccc(-c2ccc(C(=O)N3Cc4ccc(C(=O)NCCc5ccccn5)n4Cc4ccccc43)cc2C)c1 [Example 51, 10-[(3′-Methoxy-2-methyl-[1,1′-biphenyl]-4-yl)carbonyl]-N-[2-(2-pyridinyl)ethyl]-10,11-dihydro-5H-pyrrolo[2,1-c][1,4]benzodiazepine-3-carboxamide] | 2% | – |
| COc1cc(C(=O)N2Cc3ccc(C(=O)N4CCN(c5ccccn5)CC4)n3Cc3ccccc32)ccc1-n1c(C)ccc1C [Example 145, {10-[4-(2,5-Dimethyl-1H-pyrrol-1-yl)-3-methoxybenzoyl]-10,11-dihydro-5H-pyrrolo[2,1-c][1,4]benzodiazepin-3-yl}[4-(pyridin-2-yl)-1-piperazinyl]methanone] | -1% | – |
| COc1cc(-c2ccccc2C)c(Cl)cc1C(=O)N1Cc2ccc(C(=O)N3CCN(c4ccncc4)CC3)n2Cc2ccccc21 [Example 119, {10-[(6-Chloro-3-methoxy-2′-methyl-[1,1′-biphenyl]-4-yl)carbonyl]-10,11-dihydro-5H-pyrrolo[2,1-c][1,4]benzodiazepin-3-yl}[4-(4-pyridinyl)-1-piperazinyl]methanone] | 9% | – |
| COc1cccc(-c2ccc(C(=O)N3Cc4ccc(C(=O)N5CCN(c6ccncc6)CC5)n4Cc4ccccc43)cc2OC)c1 [Example 123, {10-[(2,3′-Dimethoxy-[1,1′-biphenyl]-4-yl)carbonyl]-10,11-dihydro-5H-pyrrolo[2,1-c][1,4]benzodiazepin-3-yl}[4-(4-pyridinyl)-1-piperazinyl]methanone] | 71% | – |
